Drawing on ChEMBL document CHEMBL2331197, “Alstoniaphyllines A-C, unusual nitrogenous derivatives from the bark of Alstonia macrophylla” (J Nat Prod, 2013), this text covers IC50 and Activity for 13 compounds.

pIC50: −log10 of the molar value. Calls of active or inactive are those of the source. The calls are words filed in the database; no cut-off is given here.

By pIC50 is commonly meant the IC50 on a negative log10 scale, so that one unit is a factor of ten. Higher therefore signals a small IC50.

In the first assay the test system is KB. Briefly: Cytotoxicity against human KB cells by resazurin assay. Type of assay: functional, cell-based. For orientation: Resazurin is reduced to fluorescent resorufin, in cell work by metabolically active cells.
In the case of `CC(=O)C1=COC[C@@H]2[C@H]1C[C@H]1[C@H](O)C[C@@H]2N1C` [ANGUSTIMALINE], the pIC50 is less than 4.00.
Compound `CC1=C(C=O)[C@@H]2C[C@H]3c4c(c5ccccc5n4C)C[C@@H]([C@@H]2CO1)N3C` [ALSTONERINAL] had a pIC50 of less than 4.00.
Still for that read-out and setting: the figure for `CC(=O)C1=COC[C@@H]2[C@H]1C[C@H]1C(=O)C[C@@H]2N1C` [ALSTONIAPHYLLINE A] is less than 4.00; for `CC(=O)C1=COC[C@H]2[C@@H]3C[C@@]4(C(=O)N(C)c5ccccc54)[C@H](C[C@@H]12)N3` [ALSTONAL] it is less than 4.00.
In the case of `COc1ccc2c(c1)N(C)C(=O)[C@@]21C[C@@H]2N[C@H]1C[C@H]1C(C(C)=O)=COC[C@@H]21`, the pIC50 was less than 4.00.
`COc1ccc2c3c(n(C)c2c1)[C@@H]1C[C@H]2C(C=O)=C(C)OC[C@H]2[C@H](C3)N1C` [ALSTOPHYLLAL] showed a pIC50 of less than 4.00.
`C/C=C1/CN2CC[C@@]34c5cc(OC)ccc5N(C)[C@H]3[C@@H]2C[C@H]1[C@@H]4C(=O)OC` showed a negative logarithm of the IC50 (pIC50) of less than 4.00.
For `C[C@@H]1OC[C@@H]2[C@@H](C[C@H]3C4=Nc5ccccc5C4=C[C@@H]2[N+]3(C)[O-])[C@@H]1CO` (stereo not given in full) [ALSTONIAPHYLLINE C], the pIC50 was less than 4.00.
Take `C[C@@H]1OC[C@@H]2[C@@H](C[C@H]3C(=O)C[C@@H]2N3C)[C@@H]1CO` [ALSTONIAPHYLLINE B]: the pIC50 is less than 4.00.
Compound `C[C@@H]1OC[C@@H]2[C@@H](C[C@H]3c4c(c5ccccc5n4C)C[C@@H]2N3C)[C@@H]1C=O` [Talcarpine] showed a pIC50 of less than 4.00.
The same measure, in the same setting: the figure for `Cc1c2ccncc2c(C)c2c1[nH]c1ccccc12` [ELLIPTECINE] is 5.31; for `COc1cccc2c1C(=O)c1c(O)c3c(c(O)c1C2=O)C[C@@](O)(C(=O)CO)C[C@@H]3O[C@H]1C[C@H](N)[C@H](O)[C@H](C)O1` [DOXORUBICIN] it is 6.26.
The compound `C[C@@H]1OC[C@@H]2[C@@H](C[C@H]3c4c(c5ccccc5n4C)C[C@@H]2N3C)[C@H]1CO` [MACROCARPINE B] showed a negative-log IC50 (pIC50) of less than 4.00.

A further assay concerns Plasmodium falciparum. Nature of the assay: Antimalarial activity against multidrug-resistant Plasmodium falciparum K1 by [3H]-hypoxanthine incorporation assay. Type of assay: functional, organism-based.
`CC(=O)C1=COC[C@H]2[C@@H]3C[C@@]4(C(=O)N(C)c5ccccc54)[C@H](C[C@@H]12)N3` [ALSTONAL] had a pIC50 of 5.12.
Turning to `COc1ccc2c(c1)N(C)C(=O)[C@@]21C[C@@H]2N[C@H]1C[C@H]1C(C(C)=O)=COC[C@@H]21`, the result was Active.
